From PMC11191402, “High-Affinity NIR-Fluorescent Inhibitors for Tumor Imaging via Carbonic Anhydrase IX” (Bioconjugate Chemistry, 2024)

Experiments:
human recombinant CAI = target: T1, human recombinant CAI (Homo sapiens, UniProt P00915); experiment: Fluorescence-based thermal shift assay (FTSA), CAI; type: binding; conditions: 37 °C, pH 7.0
T1 construct: made in house; host or cells: bacterial expression system
Experimental: (§1) The binding affinities of the four NIR-fluorescent compounds to 12 catalytically active recombinant CA isozymes were determined by the fluorescence-based thermal shift assay (FTSA), and the dissociation constants (Kd’s) at physiological pH (pH 7.0) and 37 °C are listed in Table 1.
(§2) All 12 catalytically active human CA isozymes were prepared recombinantly as previously described. Most isozymes were truncated, and only the catalytic domains of the proteins were produced.[9],[56] All isozymes were expressed in a bacterial expression system except that CAIX was expressed in mammalian cells. The proteins were chromatographically purified via immobilized metal affinity chromatography, ion-exchange, or p-aminomethylbenzenesulfonamide-sepharose affinity chromatography. Protein purity was confirmed by SDS-PAGE, and MW was confirmed by mass spectrometry with 1 Da precision, as predicted from theoretical protein sequence.
(§3) The fluorescence-based thermal shift assay (FTSA) was used to determine the binding affinity of compounds for all catalytically active CA isozymes. […] The CA isozyme melting temperature Tm was determined by following the fluorescence of 8-anilino-1-naphthalenesulfonate (ANS) or Glomelt dye. […]

[1] = tested on: HeLaCAIX^WT versus HeLaCAIX^KO tumors; experiment: NIR imaging of HeLa xenograft tumors in nude mice; type: in vivo; conditions: for compound uptake in HeLaCAIX^WT tumors compared to HeLaCAIX^KO tumors: I.V. 2 mg/kg once, imaged every 24 h
Experimental: The HeLaCAIX^WT and HeLaCAIX^KO cells were injected subcutaneously (S.Q.) into opposite flanks of nude mice, 3 × 10^6 cells per injection. Once tumors reached the palpable size, we performed imaging using the UVITEC AllianceQ9 Imager system. The images were obtained every 24 h after intravenous (I.V.) compound injection into a tail vein. To analyze fluorescent compound uptake, two best candidate compounds were chosen, AZ21-6 and GZ22-4. Compound GZ22-4 was selected because of the photostability and good quantum yield (Table S1), and the fluorescence maximum of AZ21-6 closely resembled the center of the NIR filter of the imaging system. Both compounds had the best solubility properties and good in vitro binding to cells.
Female nude mice (CR ATH HO Code 24106216), 5–6 weeks old, were obtained from Charles River Laboratories. Animals were housed, bred, and handled in the Department of Animal Models Animal Facility at the Life Sciences Center, Vilnius University, Lithuania, with a 12 h light–dark cycle, at 21–23 °C and 40–60% humidity. Animals were fed with an irradiated cholorophyll-deficient diet (Altromin, #C1086194) and water ad libitum. All experimental procedures conformed to Directive 2010/63/EU requirements and were approved by the Lithuanian State Food and Veterinary Service (Approval no G2-194, 2021-11-09).
Before injection into animals, mycoplasma-free cells in the exponential growth phase were harvested, washed, and resuspended in PBS. 8–12 weeks old female nude mice were inoculated S.Q. with 3 × 10^6 HeLaCAIX^WT cells in 100 μL of PBS into the right flank of the mice, and the same number of HeLaCAIX^KO cells were injected into the left flank of the same mouse. Once tumors reached a suitable size for imaging, GZ22-4 or AZ21-6 compounds were injected I.V. at a dose of 2 mg/kg/dose once. Mice were imaged every 24 h postinjection using isoflurane anesthesia with an Alliance^TM bQ9 Imager system. Images were quantified using the UVIBAND MAX analysis software system. […]

human recombinant CAVB = target: T2, human recombinant CAVB (Homo sapiens, UniProt Q9Y2D0); experiment: Fluorescence-based thermal shift assay (FTSA), CAVB; type: binding; conditions: 37 °C, pH 7.0
T2 construct: Most isozymes were truncated, and only the catalytic domains of the proteins were produced; made in house; host or cells: bacterial expression system
Experimental: as §1, §2, §3

T1 sequence (P00915 whole entry): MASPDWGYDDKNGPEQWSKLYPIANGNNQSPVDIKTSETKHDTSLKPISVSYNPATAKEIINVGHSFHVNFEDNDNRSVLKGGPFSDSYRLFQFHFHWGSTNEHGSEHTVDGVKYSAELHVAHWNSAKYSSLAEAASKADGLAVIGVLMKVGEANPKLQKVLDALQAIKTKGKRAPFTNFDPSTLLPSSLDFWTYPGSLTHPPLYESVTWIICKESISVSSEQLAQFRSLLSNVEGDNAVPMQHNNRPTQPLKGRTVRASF
T2 sequence (Q9Y2D0 37-296 limits assumed): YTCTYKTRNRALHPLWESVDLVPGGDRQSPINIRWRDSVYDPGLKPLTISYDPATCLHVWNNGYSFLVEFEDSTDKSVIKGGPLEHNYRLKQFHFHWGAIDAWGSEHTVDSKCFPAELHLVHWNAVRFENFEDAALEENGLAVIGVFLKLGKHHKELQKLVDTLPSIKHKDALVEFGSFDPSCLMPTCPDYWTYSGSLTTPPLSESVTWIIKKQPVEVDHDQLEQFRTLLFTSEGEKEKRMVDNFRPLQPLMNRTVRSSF

Kd (human recombinant CAI) [µM]	clearance from nontumor locations ([1]; I.V. 2 mg/kg, daily images)	Kd (human recombinant CAVB) [µM]	SMILES	compound uptake in HeLaCAIX^WT tumors compared to HeLaCAIX^KO tumors [1]
10			CC1(C)C(/C=C/C2=C(Oc3cccc(CC(=O)NCCCOCCOCCOCCCNC(=O)CCS(=O)(=O)c4c(F)c(F)c(S(N)(=O)=O)c(F)c4NC4CCCCCCC4)c3)C(=C/C=C3\N(CCCCS(=O)(=O)[O-])c4ccccc4C3(C)C)/CCC2)=[N+](CCCCS(=O)(=O)[O-])c2ccccc21.[Na+] [GZ21-19, Sodium 4-((Z)-2-((E)-2-(2-(3-(20-((2-(Cyclooctylamino)-3,5,6-trifluoro-4-sulfamoylphenyl)sulfonyl)-2,18-dioxo-7,10,13-trioxa-3,17-diazaicosyl)phenoxy)-3-((E)-2-(3,3-dimethyl-1-(4-sulfonatobutyl)-3H-indol-1-ium-2-yl)vinyl)cyclohex-2-en-1-ylidene)ethylidene)-3,3-dimethylindolin-1-yl)butane-1-sulfonate]	
	faster clearance from nontumor locations		CC1(C)C(/C=C/C2=C(Oc3ccc(CCC(=O)NCCOCCOCCOCCOCCOCCOCCOCCOCCOCCOCCOCCNC(=O)CCS(=O)(=O)c4c(F)c(F)c(S(N)(=O)=O)c(F)c4NC4CCCCCCC4)cc3)C(=C/C=C3\N(CCCCS(=O)(=O)[O-])c4ccccc4C3(C)C)/CCC2)=[N+](CCCCS(=O)(=O)[O-])c2ccccc21.[Na+] [GZ22-4, Sodium 4-((Z)-2-((E)-2-(2-(4-(43-((2-(Cyclooctylamino)-3,5,6-trifluoro-4-sulfamoylphenyl)sulfonyl)-3,41-dioxo-7,10,13,16,19,22,25,28,31,34,37-undecaoxa-4,40-diazatritetracontyl)phenoxy)-3-((E)-2-(3,3-dimethyl-1-(4-sulfonatobutyl)-3H-indol-1-ium-2-yl)vinyl)cyclohex-2-en-1-ylidene)ethylidene)-3,3-dimethylindolin-1-yl)butane-1-sulfonate]	preferential uptake
20		0.05	CC1(C)C(/C=C/C2=C(NCCCOCCOCCOCCCNC(=O)CCC(=O)NCCS(=O)(=O)c3c(F)c(F)c(S(N)(=O)=O)c(F)c3NC3CCCCCCC3)C(=C/C=C3\N(CCCCS(=O)(=O)[O-])c4ccccc4C3(C)C)/CCC2)=[N+](CCCCS(=O)(=O)[O-])c2ccccc21.[Na+] [AZ21-6, Sodium 4-((Z)-2-((E)-2-(2-((1-((2-(Cyclooctylamino)-3,5,6-trifluoro-4-sulfamoylphenyl)sulfonyl)-4,7-dioxo-12,15,18-trioxa-3,8-diazahenicosan-21-yl)amino)-3-((E)-2-(3,3-dimethyl-1-(4-sulfonatobutyl)-3H-indol-1-ium-2-yl)vinyl)cyclohex-2-en-1-ylidene)ethylidene)-3,3-dimethylindolin-1-yl)butane-1-sulfonate]	preferential uptake
